Results on 13 molecules are retold here after US20240393319A1, “FLUORESCENT SENSORS AND METHODS OF MAKING AND USING” (Howard Hughes Medical Institute, priority 2023, published 2024).

In one data set the test system is LMTK- cells. Briefly: Green:red ratio imaging in parental LMTK- fibroblasts. The class given is cell-based, mouse. How it is done: (§1) Rho° and the parental LMTK-cells were maintained in T-75 flasks with DMEM+10% FBS+1 mM pyruvate+5 μM uridine. Two days prior to transfection, they were split into a 24-well plate (half Rho°, half LMTK) at 0.6 and 0.1 million cells per well, respectively. Cells were transfected with iATPSnFR2.HaloTag variants by lipofectamine (0.5 μg DNA+2 μL lipofectamine 2000 per well) for 4-6 hours in DMEM lacking FBS or antibiotics. Transfection media was replaced with fresh DMEM+10% FBS+penicillin/streptomycin overnight. Cells were labeled with JFX650 HaloTag ligand by adding the fluorophore to 100 nM for an hour. Cells were washed with Mammalian Cell Imaging Buffer and imaged in a Cytation 5 imaging reader (BioTek) over the course of about 2 hours. After about 20 minutes of imaging to establish a baseline fluorescence, the culture plate was removed from the instrument and buffer was replaced with the query buffer. The equilibration buffer contained 10 mM glucose, and the query buffers contained 10 mM 2dOG.
(§2) Images were background subtracted and aligned for movement artefacts with the Gen5 software package that controls the Cytation 5 instrument. Images were assembled as TIF stacks and imported into ImageJ. […] Those ROIs were used to determine the ratio of green to red fluorescence for each well. […]

The next data set has as its system Rho° (ρ^0) cells. Kind of data set: Green:red ratio imaging in Rho° fibroblasts. The class given is cell-based, mouse. The settings on record: 10 mM 2dOG. How it is done: as §1, §2
For data set [1], the target named is T1, iATPSnFR2.A95A.A119L.HaloTag-JFX650 (L1-VLVG, L2-ICV); cpSFGFP inserted in epsilon subunit of Bacillus subtilis PS3 F0-F1 ATPase; mutations A95A, A119L; SEQ ID N (Bacillus sp. PS3, UniProt P07678).
T1 construct: E. coli, Ni-NTA purified
T1 sequence (P07678 whole entry, stated change not applied): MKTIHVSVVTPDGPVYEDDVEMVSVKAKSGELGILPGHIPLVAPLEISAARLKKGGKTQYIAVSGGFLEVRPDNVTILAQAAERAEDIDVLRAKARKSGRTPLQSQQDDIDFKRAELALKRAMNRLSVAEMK
Briefly: ATP/nucleotide titration, binding curve fits. The note with it: for Kd: A95A.A119L; for fluorescence change in response to nucleoside triphosphate: GTP, CTP, TTP. From the text:
(1A) Artistic rendering of iATPSnFR2.HaloTag made with PyMol. The N-terminal fragment (residues 1-109) of the epsilon subunit of ATPase (orange, based on 2E5Y.PDB) is fused to cpSFGFP (green). The C-terminus of cpSFGFP is fused to the residual ATP-binding helix (residues 110-129) of the epsilon subunit (pink), which itself is fused to HaloTag (cyan). “Linkers” are shown as sticks in yellow. […] HaloTag fluorophore is shown as sticks in red. […] (1C-1E) Ratio of green (iATPSnFR2) to red (HaloTag-JFX650) fluorescence in fibroblasts transfected with three affinity variants of iATPSnFR2-HaloTag. […] Cells were incubated for 21 minutes in buffer containing 10 mM glucose, and then switched to buffer containing 10 mM 2-deoxyglucose. (1C) Rho° cells. (1D) Parental LMTK cell line. (1E) Parental cell line treated with both 2-deoxyglucose and oligomycin.
ATP (black), CTP (cyan), GTP (grey), TTP (purple).
(§3) Purified protein was mixed with 1.1 molar equivalents of JFX650 HaloTag Ligand and incubated at room temperature for 1 hour and then at 4° C. overnight. Excess HaloTag Ligand was removed by gel filtration on a PD-10 column (GE Life Sciences) and re-concentrated by ultrafiltration.
The iATPSnFR2.HaloTag-JFX650 was the primary protein used for in vitro characterization.

A further data set concerns ChemoG-ATPSiR. The note with it: cited from earlier work.
A further data set has as its system MaLion. The settings on record: cited from earlier work.
Data set [2] relates to axonal mitochondria of primary hippocampal neurons. Briefly: Mitochondrial matrix ATP without glucose (mito-iATPSnFR2). The format is cell-based, Sprague-Dawley rats. As to the method: Data is represented as mean±SE for N=4 (each condition). […] Data from N=4 for each condition is represented as mean±SE, p-value (**≤0.001 for PA and PA+Etox) was determined using unpaired samples t-test. ns signifies non-significant change in mean values.
(§4) Primary neuronal cultures were prepared as previously described. Hippocampal CA1 to CA3 regions were dissected, dissociated, and plated onto poly-L-ornithine-coated coverslips. Plating media consisted of the minimal essential medium, 0.5% glucose, insulin (0.024 g/l), transferrin ([…]), GlutaMAX 1%, N-21 (2%), and fetal bovine serum (10%). After 1-3 days in vitro (DIV), cells were fed and maintained in media with the following modifications: cytosine β-D-arabinofuranoside (4 μM) and FBS 5%. Cultures were incubated at 37° C. in a 95% air/5% CO2 incubator. […]
(§5) Coverslips were loaded onto a custom chamber, mounted on a Zeiss inverted microscope and perfused at ˜100 μl min^−1 with Tyrode's solution containing: 119 mM NaCl, 2.5 mM KCl, 30 mM glucose, 25 mM HEPES, 2 mM CaCl2), 2 mM MgCl2, 50 μM DL-2-amino-5-phosphonovaleric acid (APV, AP5), 10 μM 6-cyano-7-nitroquinoxaline-2,3-dione (CNQX), adjusted to pH 7.4. […] Fluorescence was stimulated with OBIS 488 nm LX or OBIS 637 nm LS lasers (Coherent) passing through a laser speckle reducer (LSR 3005 at 12° diffusion angle, Optotune). […]

The test system of data set [3] is axonal mitochondria of primary neurons. Kind of data set: Axonal mitochondrial ATP (mito-iATPSnFR2) after removal of glucose. The class given is cell-based. How it is done: Similar results were obtained in neurons where LDs were induced by blocking DDHD2 activity with KLH45 for 24 hours.
The test system of data set [4] is axonal mitochondria of primary hippocampal neurons. Briefly: mito-iATPSnFR2.HaloTag imaging of mitochondrial ATP in neurons. The note with it: 1.25 mM lactate + 1.25 mM pyruvate + 10 μM oligomycin. The format is cell-based, rat. How it is done:
All experiments involving animals were performed in accordance with protocols approved by the Weill Cornell Medicine Institutional Animal Care and Use Committee. Neurons were derived from Sprague-Dawley rats (Charles River Laboratories strain code: 001, RRID: RGD_734476) of either sex on postnatal days 0-2).
as §4, §5

Data set [5] is described as follows: TTP titration of purified iATPSnFR2 sensor. The class given is binding. As to the method: iATPSnFR2 variants were transformed into E. coli BL21 (DE3) pLysS cells. Protein expression was induced by growth in 300 mL autoinduction media supplemented with 100 μg/mL ampicillin at 30° C. […] Fractions that were fluorescent were pooled and concentrated by ultrafiltration (Amicon) and then dialyzed by Slide-A-Lyzer cassette (30 kDa cutoff) in Mammalian Cell Imaging Buffer. Protein concentration was quantified by alkali denaturation and measurement of the GFP chromophore, with an extinction coefficient of […] at 447 nm.
as §3

Data set [6] can be described thus: ATP titration with added inorganic phosphate. The format is binding. The settings on record: 20 mM PO4, pH 7.
Data set [7] concerns synaptic boutons of hippocampal neurons. Briefly: Syn-iATPSnFR2.HaloTag imaging of ATP depletion in boutons. The format is cell-based, rat. The settings on record: 5 mM glucose + 10 μM KA + 0.3 μM TTX.
A short description of data set [8]: Stopped-flow fluorescence kinetics of ATP binding. How it is done:
Final concentration of protein was thus 0.1 μM.

A short description of data set [9]: pH dependence of fluorescence. The format is physicochemical. The note with it: ligand-free sensor.

Like-named read-outs stand apart in the source and are kept apart here.

Take `O=CC[C@@H](O)[C@H](O)[C@H](O)CO` [2dOG, 2-deoxyglucose]: the “fluorescence after 2dOG treatment” value in the data set with LMTK- cells (10 mM 2dOG, parental LMTK- cells) is “decreased fluorescence only in the parental LMTK-cells expressing the weakest affinity variant”. Further, in the data set with Rho° (ρ^0) cells, the “green fluorescence after glucose replaced with 2dOG” value is “rapidly dropped”.

On to `Nc1ncnc2c1ncn2[C@@H]1O[C@H](COP(=O)(O)OP(=O)(O)O)[C@@H](O)[C@H]1O` [ADP], for which the “ΔF/F for ADP” value in data set [1] was approximately 6. Besides, the Kd is 5.3 mM in [1] (read-out: affinity for ADP (binding curve fit), head-to-head with ATP) and 5.3 mM in data set [1] (read-out: affinity for ADP, FIG. 1B, 5D).

For `Nc1ncnc2c1ncn2[C@@H]1O[C@H](COP(=O)(O)O)[C@@H](O)[C@H]1O` [AMP], in data set [1], the “affinity for AMP” value was “minimal, if any, affinity”.

`Nc1ccn([C@@H]2O[C@H](COP(=O)(O)OP(=O)(O)OP(=O)(O)O)[C@@H](O)[C@H]2O)c(=O)n1` [CTP]: in data set [1] (FIG. 5E), the “fluorescence change in response to nucleoside triphosphate” value (“fluorescence change in response” for short) is “changes fluorescence”. Further, the Kd in data set [1] (read-out: affinity for CTP (binding curve fit), FIG. 5E) is approximately 10 mM.

On to `Nc1nc2c(ncn2[C@@H]2O[C@H](COP(=O)(O)OP(=O)(O)OP(=O)(O)O)[C@@H](O)[C@H]2O)c(=O)[nH]1` [GTP], for which, in [1] (FIG. 5E), the “fluorescence change in response” value is “changes fluorescence”. The Kd in data set [1] (read-out: affinity for GTP (binding curve fit), FIG. 5E) is approximately 10 mM. Moreover, the “change in fluorescence with GTP” value with ChemoG-ATPSiR and in the data set with MaLion was “no change in fluorescence” throughout.

In the case of `O=C(N(CCc1ccccc1)C1CCCCC1)n1ncc(-c2ccc(OC(F)(F)F)cc2)n1` [KLH45], the “mitochondrial ATP levels in absence of glucose” value in data set [2] (KLH45 for 24 hours, then removed) was “ATP levels are sustained”. Moreover, in data set [3] (DDHD2 blocked for 24 hours, then glucose and KLH45 removed), the “mitochondrial ATP levels after removal of glucose” value is on record as “sustained”.

As to `Cc1cn([C@H]2C[C@H](O)[C@@H](COP(=O)(O)OP(=O)(O)OP(=O)(O)O)O2)c(=O)[nH]c1=O` [TTP], the “fluorescence change in response” value in [1] (FIG. 5E) is reported as “not”.

As for `CCOC(=O)[C@@]1(CCCCCCOc2ccc(Cl)cc2)CO1` [etomoxir], the “mitochondrial ATP levels after removal of glucose” value in data set [3] (after KLH45 24 hours, etomoxir included) is listed as “ATP decline over a 10-minute period”. Also, the “decline in mitochondrial ATP level” value in data set [3] (palmitic acid pre-fed neurons, applied when removing glucose) was “identical to the control neurons without any fuel supplement”.

On to `CC[C@H]1/C=C/C=C/C[C@@H](C)[C@H](O)[C@@](C)(O)C(=O)[C@@H](C)[C@H](O)[C@@H](C)C(=O)[C@@H](C)[C@H](O)[C@@H](C)/C=C/C(=O)O[C@@H]2[C@H](C)[C@H](CC1)O[C@]1(CC[C@H](C)[C@H](C[C@@H](C)O)O1)[C@H]2C` [oligomycin], for which the “mitochondrial ATP signal” value in [4] is “further collapse of the ATP signal”. Also, in the data set on LMTK- cells (parental cells, both 2dOG and oligomycin), the “fluorescence after 2dOG and oligomycin” value is “dropped in a manner similar to the ρ^0 cells”.

Take `CCCCCCCCCCCCCCCC(=O)O` [palmitic acid]: the “mitochondrial ATP levels in absence of glucose” value is “mitochondrial ATP levels were sustained” in data set [2] (palmitic acid pre-fed for 4 hours, 10 minutes) and “sustained” in data set [3] (pre-fed for 4 hours, 10 minutes).

As to “A95A.A119L: low affinity iATPSnFR2 variant, characterised as HaloTag-JFX650 fusion”, the “fluorescence response to TTP” value in [5] was “but not TTP”. For the same molecule, the “effect of inorganic phosphate on the sensor” value in data set [6] is reported as “negligibly affected”. Besides, the “average green to red fluorescence ratio in boutons” value in data set [7] is “greater drop than the medium affinity A95K variant”. Further, the “green fluorescence after glucose replaced with 2dOG” value in the data set with Rho° (ρ^0) cells is reported as “nearly non-fluorescent within minutes of treatment”.

As for “S29W.A95K: high affinity iATPSnFR2 variant, characterised as HaloTag-JFX650 fusion”, in data set [8], the “rate of ATP binding / fluorescence change, comparison” value is given as “faster than A95A.A119L”.

Turning to “iATPSnFR2: improved ATP sensor: cpSFGFP inserted in epsilon subunit of ATPase, L1-VLVG, L2-ICV, A95A, A119L”, the “effect of inorganic phosphate on the sensor” value in [6] is “not affected”. For the same molecule, the pKa result in data set [9] is reported as “about 6.0”.
